According to patent publication US8394787B2, “7-aza-spiro[3.5]nonane-7-carboxylate derivatives, preparation thereof and therapeutic use thereof” (Sanofi, priority 2009, dated 2013):
Where a name gives a salt, the structure may show the parent alone.

Compound | melting point [°C]
NC(=O)c1cc(COC(=O)N2CCC3(CC(Oc4ccc(Cl)c5ccccc45)C3)C2)on1 (single isomer, unassigned) [Compound 30, 3-carbamoyl-isoxazol-5-ylmethyl 2-(4-chloronaphthalen-1-yloxy)-6-aza-spiro[3.4]octane-6-carboxylate] | 149 to 150
Cn1ncnc1COC(=O)N1CCC2(CC1)CC(Oc1ccc(Cl)cc1)C2 (as salt: HCl) | 163 to 165
CNC(=O)c1cc(COC(=O)N2CCC3(CC2)CC(Oc2ccc4ccncc4c2)C3)on1 [Compound 21, 3-methylcarbamoyl-isoxazol-5-ylmethyl 2-(isoquinolin-7-yloxy)-7-aza-spiro[3.5]nonane-7-carboxylate] | 79 to 81
CCOc1ccc2ccc(OC3CC4(CCN(C(=O)OCc5cc(C(=O)NC)no5)CC4)C3)cc2c1 [Compound 8, 3-methylcarbamoyl-isoxazol-5-ylmethyl 2-(7-ethoxynaphthalen-2-yloxy)-7-aza-spiro[3.5]nonane-7-carboxylate] | 73 to 75
CNC(=O)c1cc(COC(=O)N2CCC3(CC(Oc4ccc(Cl)c5ccccc45)C3)C2)on1 (single isomer, unassigned) [Compound 31, 3-methylcarbamoyl-isoxazol-5-ylmethyl 2-(4-chloronaphthalen-1-yloxy)-6-aza-spiro[3.4]octane-6-carboxylate] | 87 to 92
CNC(=O)c1cc(COC(=O)N2CCC3(CC2)CC(Oc2ccc(Cl)cc2)C3)on1 [Compound 3, 3-methylcarbamoyl-isoxazol-5-ylmethyl 2-(4-chlorophenoxy)-7-aza-spiro[3.5]nonane-7-carboxylate] | 147 to 149
NC(=O)c1cc(COC(=O)N2CCC3(CC(Oc4ccc(Cl)c(F)c4)C3)C2)on1 (single isomer, unassigned) [Compound 26, 3-carbamoyl-isoxazol-5-ylmethyl 2-(4-chloro-3-fluorophenoxy)-6-aza-spiro[3.4]octane-6-carboxylate] | 83 to 92
NC(=O)c1cc(COC(=O)N2CCC3(CC(Oc4ccc(-c5ccc(F)cc5)cc4)C3)C2)on1 (single isomer, unassigned) [Compound 28, 3-carbamoyl-isoxazol-5-ylmethyl 2-(4′-fluorobiphenyl-4-yloxy)-6-aza-spiro[3.4]octane-6-carboxylate] | 131 to 133
NC(=O)c1cc(COC(=O)N2CCC3(CC2)CC(Oc2cccc(-c4ccc(F)cc4)c2)C3)on1 [Compound 12, 3-carbamoyl-isoxazol-5-ylmethyl 2-(4′-fluorobiphenyl-3-yloxy)-7-aza-spiro[3.5]nonane-7-carboxylate] | 74 to 76
CNC(=O)c1csc(COC(=O)N2CCC3(CC2)CC(Oc2cccc(-c4ccc(F)cc4)c2)C3)n1 [Compound 20, 4-methylcarbamoyl-thiazol-2-ylmethyl 2-(4′-fluorobiphenyl-3-yloxy)-7-aza-spiro[3.5]nonane-7-carboxylate] | 130 to 132
CNC(=O)c1cc(COC(=O)N2CCC3(CC(Oc4ccc(Cl)cc4)C3)C2)on1 (single isomer, unassigned) | 94 to 97
CNC(=O)c1cc(COC(=O)N2CCC3(CC2)CC(Oc2ccc(Cl)c4ccccc24)C3)on1 [Compound 17, 3-methylcarbamoyl-isoxazol-5-ylmethyl 2-(4-chloronaphthalen-1-yloxy)-7-aza-spiro[3.5]nonane-7-carboxylate] | 62 to 64
NC(=O)c1coc(COC(=O)N2CCC3(CC(Oc4cccc(C(F)(F)F)c4)C3)C2)n1 (single isomer, unassigned) [Compound 14, 4-carbamoyl-oxazol-2-ylmethyl 2-(3-trifluoromethylphenoxy)-6-aza-spiro[3.4]octane-6-carboxylate] | 90 to 92
CNC(=O)c1cc(COC(=O)N2CC3(CC(Oc4ccc(Cl)c(F)c4)C3)C2)on1 [Compound 23, 3-methylcarbamoyl-isoxazol-5-ylmethyl 6-(4-chloro-3-fluorophenoxy)-2-aza-spiro[3.3]heptane-2-carboxylate] | 84 to 86
